# Assay results published in patent US20100298141A1, “SUBSTITUTED PYRIDINE N-OXIDE HERBICIDES” (E. I. DU PONT DE NEMOURS AND COMPANY, priority 2007, published 2010).
# Experiments:
# Assay in all cases: Test F preemergence test
# southern sandbur = format: in vivo, Cenchrus echinatus; settings: scale 0 to 100
# Procedure, shortened: (§1)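 Test chemicals in a non-phytotoxic solvent mixture containing a surfactant were applied preemergence to sown seeds or postemergence to sugarcane plants. Treated plants and controls were held in a greenhouse for 14 to 21 days, then visually evaluated against controls.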
# barnyardgrass = format: in vivo, Echinochloa crus-galli
# Procedure, shortened: as §1
# common mallow = format: in vivo, Malva sylvestris; settings: scale 0 to 100
# Procedure, shortened: as §1
# common purslane = format: in vivo, Portulaca oleracea; settings: scale 0 to 100
# Procedure, shortened: as §1
# green foxtail = format: in vivo, Setaria viridis; settings: scale 0 to 100
# Procedure, shortened: as §1
# Canada horseweed = format: in vivo, Conyza canadensis; settings: scale 0 to 100
# Description: Seeds of plant species selected from bermudagrass (Cynodon dactylon), Surinam grass (Brachiaria decumbens), large crabgrass (Digitaria sanguinalis), green foxtail (Setaria viridis), goosegrass (Eleusine indica), johnsongrass (Sorghum halepense), kochia (Kochia scoparia), pitted morningglory (Ipomoea lacunosa), purple nutsedge (Cyperus rotundus), common ragweed (Ambrosia elation), mustard (Brassica nigra), guineagrass (Panicum maximum), […] (Paspalum dilatatum), barnyardgrass (Echinochloa crus-galli), southern sandbur (Cenchrus echinatus), common sowthistle (Sonchus oleraceous), prickly […] spinosa), Italian ryegrass (Lolium multiflorum), common purslane (Portulaca oleracea), broadleaf signalgrass (Brachiaria platyphylla), common groundsel (Senecio vulgaris), common chickweed (Stellaria media), Virginia dayflower (Commelina virginica), annual bluegrass (Poa annua), naked crabgrass (Digitaria nuda), […] cochinchinensis), quackgrass (Elytrigia repens), Canada horseweed (Conyza canadensis), field bindweed (Convolvulus arvensis), […] (Bidens bipinnata), common mallow (Malva sylvestris), Russian thistle (Salsola kali), and sugarcane (Saccharum officinarum) were planted and treated preemergence with test chemicals formulated in a non-phytotoxic solvent mixture which included a surfactant. At a different time, sugarcane was treated with postemergence applications of some of the test chemicals formulated in the same manner. Plants were approximately 3- to 4-leaf stage for the postemergence treatments. Treated plants and controls were maintained in a greenhouse for 14 to 21 days, after which time all species were compared to controls and visually evaluated. […] A dash (-) response means no test result.
# guineagrass = format: in vivo, Panicum maximum; settings: scale 0 to 100
# Procedure, shortened: as §1
# bermudagrass = format: in vivo, Cynodon dactylon; settings: scale 0 to 100
# Procedure, shortened: as §1
# annual bluegrass = format: in vivo, Poa annua; settings: scale 0 to 100
# Procedure, shortened: as §1
# prickly sida = format: in vivo, Sida spinosa; settings: scale 0 to 100
# Procedure, shortened: as §1
# mustard = format: in vivo, Brassica nigra; settings: scale 0 to 100
# Procedure, shortened: as §1
# large crabgrass = format: in vivo, Digitaria sanguinalis; settings: scale 0 to 100
# Procedure, shortened: as §1
# field bindweed = format: in vivo, Convolvulus arvensis; settings: scale 0 to 100
# Procedure, shortened: as §1
# Surinam grass = format: in vivo, Brachiaria decumbens; settings: scale 0 to 100
# Procedure, shortened: as §1
# pitted morningglory = format: in vivo, Ipomoea lacunosa; settings: 16 g ai/ha, preemergence; scale 0 to 100
# Procedure, shortened: as §1
# naked crabgrass = format: in vivo, Digitaria nuda; settings: scale 0 to 100
# Procedure, shortened: as §1
# Italian ryegrass = format: in vivo, Lolium multiflorum; settings: scale 0 to 100
# Procedure, shortened: as §1
# common ragweed = format: in vivo, Ambrosia elation; settings: scale 0 to 100
# Procedure, shortened: as §1
# quackgrass = format: in vivo, Elytrigia repens; settings: scale 0 to 100
# Procedure, shortened: as §1
compound,measurement,setting,value
Cn1nc(C(F)(F)F)c(C[S+]([O-])c2ccc(Cl)c[n+]2[O-])c1OCC(F)F (stereo not shown) [Compound 85],"Plant response rating, Sandbur","southern sandbur; 16 g ai/ha, preemergence",10
same,Sandbur plant response rating,"southern sandbur; 125 g ai/ha, preemergence",100
same,"Plant response rating, Sandbur","southern sandbur; Preemergence, 62 g ai/ha",100
same,"Plant response rating, Sandbur","southern sandbur; Preemergence, 31 g ai/ha",70
same,"Plant response rating, Barnyardgrass","barnyardgrass; 16 g ai/ha, preemergence, scale 0 to 100 (0 no effect, 100 complete control)",50
same,Barnyardgrass plant response rating,"barnyardgrass; 125 g ai/ha, preemergence, scale 0 to 100",100
same,"Plant response rating, Barnyardgrass","barnyardgrass; Preemergence, 62 g ai/ha, scale 0 to 100",90
same,"Plant response rating, Barnyardgrass","barnyardgrass; Preemergence, 31 g ai/ha, scale 0 to 100",80
same,"Plant response rating, Mallow","common mallow; 16 g ai/ha, preemergence",0
same,Mallow plant response rating,"common mallow; 125 g ai/ha, preemergence",98
same,"Plant response rating, Mallow","common mallow; Preemergence, 62 g ai/ha",98
same,"Plant response rating, Mallow","common mallow; Preemergence, 31 g ai/ha",50
same,"Plant response rating, Purslane","common purslane; 16 g ai/ha, preemergence",0
same,Purslane plant response rating,"common purslane; 125 g ai/ha, preemergence",60
same,"Plant response rating, Purslane","common purslane; Preemergence, 62 g ai/ha",60
same,"Plant response rating, Purslane","common purslane; Preemergence, 31 g ai/ha",25
same,"Plant response rating, Foxtail, Green","green foxtail; 16 g ai/ha, preemergence",35
same,"Foxtail, Green plant response rating","green foxtail; 125 g ai/ha, preemergence",95
same,"Plant response rating, Foxtail, Green","green foxtail; Preemergence, 62 g ai/ha",90
same,"Plant response rating, Foxtail, Green","green foxtail; Preemergence, 31 g ai/ha",70
same,"Plant response rating, Horseweed","Canada horseweed; 16 g ai/ha, preemergence",25
same,Horseweed plant response rating,"Canada horseweed; 125 g ai/ha, preemergence",100
same,"Plant response rating, Horseweed","Canada horseweed; Preemergence, 62 g ai/ha",100
same,"Plant response rating, Horseweed","Canada horseweed; Preemergence, 31 g ai/ha",100
same,"Plant response rating, Guineagrass","guineagrass; 16 g ai/ha, preemergence",50
same,Guineagrass plant response rating,"guineagrass; 125 g ai/ha, preemergence",100
same,"Plant response rating, Guineagrass","guineagrass; Preemergence, 62 g ai/ha",98
same,"Plant response rating, Guineagrass","guineagrass; Preemergence, 31 g ai/ha",98
same,"Plant response rating, Bermudagrass","bermudagrass; 16 g ai/ha, preemergence",20
same,Bermudagrass plant response rating,"bermudagrass; 125 g ai/ha, preemergence",95
same,"Plant response rating, Bermudagrass","bermudagrass; Preemergence, 62 g ai/ha",80
same,"Plant response rating, Bermudagrass","bermudagrass; Preemergence, 31 g ai/ha",60
same,"Plant response rating, Bluegrass","annual bluegrass; 16 g ai/ha, preemergence",75
same,Bluegrass plant response rating,"annual bluegrass; 125 g ai/ha, preemergence",100
same,"Plant response rating, Bluegrass","annual bluegrass; Preemergence, 62 g ai/ha",95
same,"Plant response rating, Bluegrass","annual bluegrass; Preemergence, 31 g ai/ha",95
same,"Plant response rating, Prickly Sida","prickly sida; 16 g ai/ha, preemergence",0
same,Prickly Sida plant response rating,"prickly sida; 125 g ai/ha, preemergence",60
same,"Plant response rating, Prickly Sida","prickly sida; Preemergence, 62 g ai/ha",40
same,"Plant response rating, Prickly Sida","prickly sida; Preemergence, 31 g ai/ha",20
same,"Plant response rating, Black Mustard","mustard; 16 g ai/ha, preemergence",40
same,Black Mustard plant response rating,"mustard; 125 g ai/ha, preemergence",60
same,"Plant response rating, Black Mustard","mustard; Preemergence, 62 g ai/ha",40
same,"Plant response rating, Black Mustard","mustard; Preemergence, 31 g ai/ha",40
same,"Plant response rating, Crabgrass, Large","large crabgrass; 16 g ai/ha, preemergence",60
same,"Crabgrass, Large plant response rating","large crabgrass; 125 g ai/ha, preemergence",90
same,"Plant response rating, Crabgrass, Large","large crabgrass; Preemergence, 62 g ai/ha",90
same,"Plant response rating, Crabgrass, Large","large crabgrass; Preemergence, 31 g ai/ha",70
same,"Plant response rating, Field Bindweed","field bindweed; 16 g ai/ha, preemergence",0
same,Field Bindweed plant response rating,"field bindweed; 125 g ai/ha, preemergence",35
same,"Plant response rating, Field Bindweed","field bindweed; Preemergence, 62 g ai/ha",20
same,"Plant response rating, Field Bindweed","field bindweed; Preemergence, 31 g ai/ha",0
same,"Plant response rating, Surinam Grass","Surinam grass; 16 g ai/ha, preemergence",60
same,Surinam Grass plant response rating,"Surinam grass; 125 g ai/ha, preemergence",100
same,"Plant response rating, Surinam Grass","Surinam grass; Preemergence, 62 g ai/ha",100
same,"Plant response rating, Surinam Grass","Surinam grass; Preemergence, 31 g ai/ha",100
same,"Plant response rating, Morningglory",pitted morningglory,0
same,"Plant response rating, Crabgrass, Naked","naked crabgrass; 16 g ai/ha, preemergence",75
same,"Crabgrass, Naked plant response rating","naked crabgrass; 125 g ai/ha, preemergence",95
same,"Plant response rating, Crabgrass, Naked","naked crabgrass; Preemergence, 62 g ai/ha",90
same,"Plant response rating, Crabgrass, Naked","naked crabgrass; Preemergence, 31 g ai/ha",80
same,"Plant response rating, Ryegrass, Italian","Italian ryegrass; 16 g ai/ha, preemergence",65
same,"Ryegrass, Italian plant response rating","Italian ryegrass; 125 g ai/ha, preemergence",100
same,"Plant response rating, Ryegrass, Italian","Italian ryegrass; Preemergence, 62 g ai/ha",100
same,"Plant response rating, Ryegrass, Italian","Italian ryegrass; Preemergence, 31 g ai/ha",65
same,"Plant response rating, Ragweed","common ragweed; 16 g ai/ha, preemergence",0
same,Ragweed plant response rating,"common ragweed; 125 g ai/ha, preemergence",80
same,"Plant response rating, Ragweed","common ragweed; Preemergence, 62 g ai/ha",80
same,"Plant response rating, Ragweed","common ragweed; Preemergence, 31 g ai/ha",20
same,"Plant response rating, Quackgrass","quackgrass; 16 g ai/ha, preemergence",20
same,Quackgrass plant response rating,"quackgrass; 125 g ai/ha, preemergence",95
same,"Plant response rating, Quackgrass","quackgrass; Preemergence, 62 g ai/ha",80
same,"Plant response rating, Quackgrass","quackgrass; Preemergence, 31 g ai/ha",65
